Results taken from patent US4898870A, “Pyrroloquinoline quinone compounds useful as an enzyme inhibitor” (Sogo Pharmaceutical Company Limited, priority 1986, dated 1990).

How the values were obtained:
[1] = Acute toxicity test, mouse; details: in vivo
Description: (§1) Generally, pyrroloquinoline quinone (hereinafter referred to as PQQ) is a novel coenzyme different from conventional coenzyme NAD(P) or flavins for oxydation-reduction and it was initially found as a coenzyme for glucose dehydrogenase of Acinetobactor group. PQQ has a concern with the oxidizing reaction of alcohols, aldehydes, glucose and amines in an organism. Further, its growth promoting effect to a certain kind of micro-organisms,animal cells, plant cells has also been reported. Further, PQQ is also presented in the blood of mammal and, while its vitamin-like physiological activity is guessed, its biological roles has not yet been known at present. However, PQQ and its derivatives constitute the ingredients of an organism and considered to be a stable and non-toxic substance. This is apparent from the result of the acute toxicity test to mouse and rat described later.
(§2) Acute toxicity test of PQQ tri(dimethylamide)

Acute toxicity test, rat = details: in vivo
Description: as §1, §2

[2] = molecular target: T1, human placental aldose reductase (Homo sapiens, UniProt P15121); experiment: Inhibition of human placental aldose reductase; type: biochemical; details: human placenta enzyme
T1 construct: An enzyme solution was prepared from human placenta; from tissue; host or cells: human placenta
Experimental: Specifically reaction was started by adding dl-glyceraldehyde as a substrate to a reaction solution containing rat lens homogenate, Li2 SO4, NADPH2 and inhibitor, and the enzyme activity was measured by the decrease of the optical absorption of NADPH2 (optical density: OD) at 340 nm for 5 min. The solution with no addition of the substrate was used for the blank OD. The inhibiting ratio for the aldose reductase reaction by the inhibitor was determined by the following equation: [formula]
The determination of enzyme activity was same as in Test Example 1 except enzyme source was human placenta.
To a reaction solution containing the chick lens homogenate, Li2 SO4, NADPH2 and an inhibitor, was added dlglyceraldehyde as substrate to start the reaction, and the enzymatic activity was determined by measuring the decrease in optical density (OD) of NADPH2 at 340 nm after five minutes. A solution with no substrate added was used for the blank test. The inhibition rate against the aldose reductase reaction was calculated from the following equation: [formula]
An enzyme solution was prepared from human placenta, and the inhibitory action of PQQ·2K against human placental aldose reductase was measured in the same way as in Test Example 4.
An enzyme solution was prepared from human placenta, and the inhibitory action of PQQ·3Me against human placental aldose reductase was measured in the same way as in Test Example 4.
An enzyme solution was prepared from human placenta, and the inhibitory action of PQQ·2Me.Et against human placental aldose reductase was measured in the same way as in Test Example 4.

CN(C)C(=O)c1cc(C(=O)N(C)C)c2c(n1)C(=O)C(=O)c1cc(C(=O)N(C)C)[nH]c1-2 [PQQ tri(dimethylamide)]
LD50 ([1]; oral): > 5000 mg/kg | LD50 ([1]; sc, subcutaneous): > 1500 mg/kg | LD50 (Acute toxicity test, rat; oral): > 5000 mg/kg | LD50 (Acute toxicity test, rat; sc, subcutaneous): > 1500 mg/kg | IC50 [2]: 830 nM
